The values below come from a melting point compilation (Tetko et al.; mined from patent text by program, amines drawn as free bases though some values may be those of a salt).

Some results are limits rather than exact numbers.

As a reminder, the melting point is the temperature of the solid-liquid transition. Take `O=[N+]([O-])c1cc(F)c(NS(=O)(=O)c2ccccc2)cc1F`: the melting point worked out at 176 °C.

`O=C1c2cc(Cl)c(Cl)cc2-c2cc(O)cc3cccc1c23` registered a melting point of 355 to 360 °C.

As for `CN1C(=O)Cc2c(Cl)cc(Cl)cc21`, the melting point was 144 to 145 °C.

Compound `CCc1nn(C2CN(C(C)C)C2)c2c(=O)[nH]c(-c3cc(S(C)(=O)=O)ccc3OCC(C)C)nc12` gave a melting point of 206 to 209 °C.

The compound `CC(=O)OCc1cccc(Nc2nccc(-c3cnn(C(C)=O)c3-c3ccccc3)n2)c1` displayed a melting point of 133 to 134 °C.

Compound `COC(=O)/C(=C/c1ccc2[nH]ccc2c1)N=[N+]=[N-]` registered a melting point of 130 to 133 °C.

In turn, `O=C(CCCN1CCC(NC(=O)c2ccccc2)CC1)c1ccc(Cl)cc1` yielded a melting point of 243 to 244 °C.

`COC(=O)c1cccc(CN2C(=O)C3(COc4cc5c(cc43)CCO5)c3ccccc32)c1` (stereo not given) gave a melting point of 97 to 98 °C.

Take `CC1(C)Oc2ccc(S(=O)(=O)c3ccccc3)cc2[C@@H](O)[C@@H]1Br` (relative stereo): the melting point was 103 to 105 °C.

In turn, `NC(=O)c1ncn2c(-c3ccc(N4CCOCC4)cc3)ccnc12` showed a melting point of 274 to 277 °C.

Compound `NC(=O)C1Oc2cc(Cl)c(S(=O)(=O)c3ccc(Cl)cc3)cc2O1` (stereo not given) returned a melting point of 240 to 242 °C.

Compound `O=C(c1ccc(Cl)cc1)N(c1ccccc1)c1ccc(OCc2ccccc2)cc1` came in with a melting point of 132 to 136 °C.

Turning to `COc1cc(CN2CCC(=O)C(C(c3ccccc3)c3ccccc3)C2)ccc1O` (stereo not given), the melting point is 131 to 132 °C.

Turning to `CC(O)C1COCc2nc3c(N)nc4ccccc4c3n21` (stereo not given), the melting point fell in the range of 208 to 209 °C.

Regarding `Cc1c(C2CCC(Cc3ccccc3)(N(C)C)CC2)[nH]c2ccc(C(F)(F)F)cc12` (stereo not given), the melting point was in the range of 166 to 174 °C.

With `CC(=O)c1ccccc1NC(=O)CN1CCN(CCCC=C(c2ccc(F)cc2)c2ccc(F)cc2)C(C(N)=O)C1` (stereo not given), the melting point was 111 °C.

As for `O=C1c2ccccc2C(=O)N1CCc1ccc(CCC2CCCCC2)cc1`, the melting point was in the range of 135 to 138 °C.

Take `Cc1ccc(S(=O)(=O)NC(=O)CC(=O)N2CCCC2C(=O)N2CCN(C3(N4CCCC4)N=CC=C(N4CCCC4)N3)CC2)cc1` (single isomer, unassigned; (-)): the melting point was 170 °C.

In turn, `COc1ccc(N2CCN(Cc3c[nH]c4ncccc34)CC2)cc1` had a melting point of 213 to 214 °C.

In the case of `N[C@@]1(C(=O)O)C[C@H](NC(=O)Nc2ccccc2F)[C@H]2[C@H](C(=O)O)[C@H]21` (relative stereo), the melting point is > 270 °C.

`CCCCc1nc2c(N)nc3cc(-c4cccnc4)ccc3c2n1CCNC(=O)C(C)C` registered a melting point of 228 to 230 °C.

For the compound `O=C(O)CCNC(=O)C(=Cc1cc(F)cc(F)c1)CS`, the melting point was determined as 125 °C.

In the case of `CC(=O)c1ccc(-c2ccnc(Nc3ccc4c(c3)OCCO4)c2)cc1`, the melting point fell in the range of 178 to 180 °C.

In turn, `COc1cc2c(cc1OC)CN(CCCNS(=O)(=O)c1cc(Cl)c(F)cc1F)CC2` registered a melting point of 110 to 112 °C.

Regarding `Nc1nc(O)c2c(n1)NCC(CCc1ccc(C(=O)N[C@@H](CCC(=O)O)C(=O)O)cc1)C2` (stereo not given in full), the melting point was > 250 °C.

In turn, `CCOC(=O)c1ccc2[nH]c([Si](C)(C)C)c(CCCO[Si](C)(C)C(C)(C)C)c2c1` registered a melting point of 115 to 116 °C.

Regarding `C[N+]([O-])=CCC=Cc1ccccc1`, the melting point lay in the range of 85 to 86 °C.

Take `N#CCCCSc1nccc(N)n1`: the melting point fell in the range of 99 to 100 °C.

The compound `O=C(Nc1cccnc1)N1CCN(c2cc(-c3cccc(F)c3F)ncn2)CC1` returned a melting point of 179 to 180 °C.

Regarding `CCOC(=O)c1ccc(C(Cc2ccc(F)cc2)C(=O)Nc2nc3ccccc3o2)cc1` (stereo not given), the melting point is 122 to 125 °C.

As to `O=C(c1cc(F)ccc1C(F)(F)F)N1CCN(c2ccc(-c3ncc(-c4ccccc4)o3)nn2)CC1`, the melting point is 122 to 125 °C.

`CCOC(=O)/C=C/c1ccc(/C=C/c2c(OC)cc3c(c2OC)C(C)(C)CCC3(C)C)cc1`: the melting point was 205 to 207 °C.

As for `CCCCN(Cc1ccc(-c2ccccc2-c2nnn[nH]2)cc1)c1ncncc1C(=O)OCOC(C)=O`, the melting point fell in the range of 65 to 69 °C.

The compound `CCOc1cc(O[Si](C)(C)C(C)(C)C)c(C)c(C(=O)OCc2ccc([N+](=O)[O-])cc2)c1C` had a melting point of 75 to 76 °C.

Turning to `Cc1nccn1-c1nccc2[nH]c(=O)ccc12`, the melting point is > 310 °C.

In the case of `CNC(=S)C1(c2ccccn2)CCCCS1` (stereo not given), the melting point is 153 °C.

With `C=C(C)Cn1c(=O)c2ccccc2n1C(=O)OCC`, the melting point lay within 48 to 50 °C.

As for `O=C(c1ccc(NS(=O)(=O)c2ccccc2Cl)cc1)N1Cc2cccn2Cc2ccccc21`, the melting point was 206 to 210 °C.

`CC(=O)Nc1ccc(-n2c(N)nc3ccccc32)cc1` displayed a melting point of 246 to 248 °C.

The compound `CCCOC(=O)Nc1cccc(NC(=O)C=C(C)OC)c1` yielded a melting point of 115 °C.

Compound `Clc1nc(Cl)c2occc2n1` gave a melting point of 107 °C.

In turn, `CCCOC(=O)N(C)SN(C(=O)NC(=O)c1c(F)cccc1F)c1ccc(Oc2ccc(C(F)(F)F)cc2Cl)cc1F` had a melting point of 98 to 99 °C.

`CCSc1nc(-c2ccc(OC)cc2)c(-c2ccc(OC)cc2)s1` came in with a melting point of 73 to 75 °C.

In turn, `CC(C)OC(=O)c1cc(-n2c(=O)[nH]c3c(c2=O)CCC3)c(Br)cc1Br` displayed a melting point of 223 to 226 °C.

Take `N#Cc1cccc2c1CC(=NN)c1ccc(F)cc1S2`: the melting point was 178 to 179 °C.

Compound `CCn1ncc2c1ncc1c(N3CCN(C)CC3)nc3cc(C)nn3c12` gave a melting point of 167 to 169 °C.

As to `CN(C)CC(=O)N1c2ccccc2N(C)S(=O)(=O)c2ccc(Cl)cc21`, the melting point lay within 138 to 139 °C.

In the case of `CC(C)(CN1CCC(CNC(=O)N2C(=O)C3(CCCC3)c3ccccc32)CC1)C(=O)O`, the melting point was found to be 189 °C.

Take `N=C(NO)c1cnc(N)nc1`: the melting point was determined as 218 °C.

Regarding `CSc1nnc2ccc3ccccc3n12`, the melting point lay within 115 to 116 °C.

In turn, `CC1(C(=O)c2c[nH]c3ncc(Br)nc23)CCCC1` displayed a melting point of 207 to 208 °C.

Compound `Nc1c(-c2ccc(-c3ccccc3F)cc2)nc2ccc(C(F)(F)F)cc2c1C(=O)O` registered a melting point of 255 to 260 °C.

In turn, `Cc1nc(C(O)(c2nc(C)c(C)s2)C(C)C)sc1C` registered a melting point of 169 to 171 °C.

Compound `CCCCN1CCN(CCCC)C2SC(=C3C(=O)CC(c4ccccc4)CC3=O)SC21` (stereo not given) had a melting point of 130 to 132 °C.

As to `CC(C)(C)OC(=O)N1CCCC[C@H]1C(OC(=O)Nc1ccc2[nH]ncc2c1)c1cccc(C(=O)O)c1` (stereo not given in full), the melting point came out at 178 °C.

Turning to `Cc1c(C#N)c(-c2ccc(C#N)cc2)c(C)n1Cc1cnc(Cl)c(COC(=O)CCC(=O)O)c1`, the melting point lay in the range of 187 to 188 °C.

In turn, `COc1ccc(CCc2ccccc2C2(OC)C=CC(C(N)=O)=C(O)C2)cc1OC` (stereo not given) gave a melting point of 146 to 148 °C.

`COc1cc(C(N)=O)ccc1OCCCN1CCC(c2noc3cc(F)ccc23)CC1` registered a melting point of 163 to 164 °C.

The compound `O=Cc1cc([N+](=O)[O-])cc(O)c1O` had a melting point of 226 to 228 °C.

Turning to `CC(=O)c1ccc(Oc2ccc(Cl)c3ccccc23)cc1`, the melting point lay within 95 to 99 °C.

Turning to `CC(C)OCCN1C(=O)N2CCOC2(c2ccccc2)c2cc([N+](=O)[O-])ccc21` (stereo not given), the melting point was in the range of 123 to 124 °C.

`CC(C)(C)OC(=O)c1ccc(C(=O)OC(C)(C)C)cc1`: the melting point is 117 to 118 °C.

`Cc1ncc(CN2CCc3cc(-c4ccc(Cl)cc4)ccc3C2)c(N)n1`: the melting point was in the range of 205 to 208 °C.

Turning to `CCOC(=O)c1cc(Br)cc2c(=O)cc(-c3cccc(OCc4ncc5ccccc5n4)c3)oc12`, the melting point was 246 °C.

Turning to `CCCCCNC(=O)C(C)Cc1ccc2c(c1)c(Cc1ccc(C(=O)OC)cc1OC)cn2C` (stereo not given), the melting point is 128 to 130 °C.

With `CC(=O)Nc1ccc(C2=NN(c3nnc(C)s3)[C@H](C)Cc3cc4c(cc32)OCO4)cc1C`, the melting point was in the range of 267 to 269 °C.

Consider `COC(=O)C1=C(C)NC(C)=C(C(=O)OCCCCCCOc2cc(-c3ccc4c(c3)OCO4)[nH]n2)C1c1cccc([N+](=O)[O-])c1` (stereo not given), for which the melting point lay in the range of 167 to 169 °C.

`O=C(N[C@H]1CCCNC1=O)c1ccc(C(F)(F)F)cc1` registered a melting point of 212 to 214 °C.

Consider `CCCCCCCCCCCCCCCCCC(=O)N1CC(O)C1`, for which the melting point fell in the range of 86 to 87.5 °C.

In turn, `C=CCN(CC=C)Cc1csc(-c2ncn3c2[C@@H]2CCCN2C(=O)c2c(Cl)cccc2-3)n1` had a melting point of 186 to 187 °C.

Consider `Cc1ccc(-c2cc(C(=O)O)nn2Cc2ccc(C)c(Cl)c2)cc1`, for which the melting point worked out at 108 °C.

Consider `Cc1nn(-c2ccccc2)c(O)c1-c1c(C)nn(-c2ccccc2)c1O`, for which the melting point was > 280 °C.

`CC(=O)Nc1ccc2oc3c(c2c1)CCCC3` returned a melting point of 196 to 198 °C.

The compound `COC(=O)c1ccc(-c2ccc(Cl)cc2)[nH]1` had a melting point of 177 to 179 °C.

As to `C#Cc1cccc(Oc2ccc3c(c2)C(=O)N(c2cccc(C#C)c2)C3=O)c1`, the melting point lay within 150 to 160 °C.

For the compound `CCC(CN1CCCC1)C(C#N)(c1ccccc1)c1ccccc1` (stereo not given), the melting point worked out at 90 °C.

In turn, `ClCc1coc(-c2cc3ccccc3s2)n1` returned a melting point of 150 to 151 °C.

Turning to `O=C(NCc1ccc(/C=C/C(c2cc(Cl)c(Cl)c(Cl)c2)C(F)(F)F)cc1Cl)C(=O)NCC(F)(F)F` (stereo not given), the melting point was in the range of 161 to 163 °C.

In turn, `NNc1cc2c(nn1)CCCCCC2` yielded a melting point of 145 to 148 °C.

`CC(C)c1nc(-c2ccc(-c3cnc4[nH]c(=O)n(CC5CCOCC5)c4n3)cc2)n[nH]1` had a melting point of 305 to 308 °C.

In the case of `CCOc1cc(F)ccc1-c1noc2c(Cl)c(OC)ccc12`, the melting point lay within 150 to 152 °C.

With `CNC(=O)CN(c1ccc(Cl)cc1Cc1c(F)cccc1F)S(=O)(=O)c1ccc(OC)c(OC)c1`, the melting point turned out to be 92.9 °C.

`CCOC(=O)c1ncc2[nH]c3c([N+](=O)[O-])cccc3c2n1` gave a melting point of 318 to 325 °C.

The compound `CN1CCN(c2cc(Cl)cc3c2c(=O)n(Cc2ccccc2O)c(=O)n3Cc2ccccc2)CC1` gave a melting point of 130 to 132 °C.

`CCOC(=O)C1=C(C)Nc2ccn(C)c(=O)c2C1c1ccccc1OC` (stereo not given) had a melting point of 225 °C.
